Reference: patent US12441726B2, “Compounds and uses thereof” (Foghorn Therapeutics Inc., priority 2020, dated 2025)

Assays:
BRG-1 = BRG-1 (Homo sapiens, UniProt P51532); experiment: ATPase catalytic activity assay (ADP-Glo), BRG-1; settings: for Emax: 1 h, read-out: BRG1 Max % Inhibition, ADP-Glo, 30 nM BRG-1, 400 μM ATP
BRM = BRM (Homo sapiens, UniProt P51531); experiment: ATPase catalytic activity assay (ADP-Glo), BRM; settings: 30 nM BRM, 400 μM ATP; for IC50: BRM ATPase: IC50 (uM)
BRM, sequence (P51531 whole entry): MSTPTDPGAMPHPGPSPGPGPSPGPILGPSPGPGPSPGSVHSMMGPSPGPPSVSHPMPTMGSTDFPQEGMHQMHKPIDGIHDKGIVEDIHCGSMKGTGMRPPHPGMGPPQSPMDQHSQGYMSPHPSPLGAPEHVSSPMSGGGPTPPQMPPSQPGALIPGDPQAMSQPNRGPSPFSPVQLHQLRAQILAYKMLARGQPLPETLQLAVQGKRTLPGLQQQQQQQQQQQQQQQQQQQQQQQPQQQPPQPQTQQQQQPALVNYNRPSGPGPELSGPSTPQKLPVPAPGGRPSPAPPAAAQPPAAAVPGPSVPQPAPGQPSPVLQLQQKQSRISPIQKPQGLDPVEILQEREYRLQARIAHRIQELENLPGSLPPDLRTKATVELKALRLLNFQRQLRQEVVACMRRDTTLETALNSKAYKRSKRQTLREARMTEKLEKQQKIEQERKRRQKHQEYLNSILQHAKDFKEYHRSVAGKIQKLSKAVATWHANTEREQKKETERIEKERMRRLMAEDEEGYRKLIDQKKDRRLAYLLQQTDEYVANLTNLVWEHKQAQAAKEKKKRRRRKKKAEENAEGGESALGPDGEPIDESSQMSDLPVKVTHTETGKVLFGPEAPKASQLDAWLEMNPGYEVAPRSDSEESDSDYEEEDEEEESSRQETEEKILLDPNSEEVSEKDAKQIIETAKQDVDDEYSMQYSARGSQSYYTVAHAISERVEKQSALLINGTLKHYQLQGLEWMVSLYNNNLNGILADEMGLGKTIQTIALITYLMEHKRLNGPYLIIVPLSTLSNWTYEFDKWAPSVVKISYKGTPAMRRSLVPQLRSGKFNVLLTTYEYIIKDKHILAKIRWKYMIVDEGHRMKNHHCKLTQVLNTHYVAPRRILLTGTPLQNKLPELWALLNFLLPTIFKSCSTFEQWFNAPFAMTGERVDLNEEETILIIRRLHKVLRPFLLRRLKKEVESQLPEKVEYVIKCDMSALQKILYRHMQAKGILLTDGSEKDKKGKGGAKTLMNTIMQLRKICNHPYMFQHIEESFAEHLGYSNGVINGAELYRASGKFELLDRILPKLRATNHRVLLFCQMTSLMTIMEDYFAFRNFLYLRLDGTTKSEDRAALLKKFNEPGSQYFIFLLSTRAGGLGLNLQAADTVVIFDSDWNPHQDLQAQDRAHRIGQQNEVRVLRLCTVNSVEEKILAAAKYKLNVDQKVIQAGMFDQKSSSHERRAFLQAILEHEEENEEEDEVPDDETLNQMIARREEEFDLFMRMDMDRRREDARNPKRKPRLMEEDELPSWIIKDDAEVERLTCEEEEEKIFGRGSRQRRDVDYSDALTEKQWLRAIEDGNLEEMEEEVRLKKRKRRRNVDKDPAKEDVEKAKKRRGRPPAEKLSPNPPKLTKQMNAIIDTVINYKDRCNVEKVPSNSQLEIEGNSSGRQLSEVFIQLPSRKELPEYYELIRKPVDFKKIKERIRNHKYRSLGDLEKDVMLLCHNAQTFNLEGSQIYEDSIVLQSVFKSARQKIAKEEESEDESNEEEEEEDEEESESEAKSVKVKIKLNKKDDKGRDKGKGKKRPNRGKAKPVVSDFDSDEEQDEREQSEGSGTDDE

BRG-1, sequence (P51532 whole entry): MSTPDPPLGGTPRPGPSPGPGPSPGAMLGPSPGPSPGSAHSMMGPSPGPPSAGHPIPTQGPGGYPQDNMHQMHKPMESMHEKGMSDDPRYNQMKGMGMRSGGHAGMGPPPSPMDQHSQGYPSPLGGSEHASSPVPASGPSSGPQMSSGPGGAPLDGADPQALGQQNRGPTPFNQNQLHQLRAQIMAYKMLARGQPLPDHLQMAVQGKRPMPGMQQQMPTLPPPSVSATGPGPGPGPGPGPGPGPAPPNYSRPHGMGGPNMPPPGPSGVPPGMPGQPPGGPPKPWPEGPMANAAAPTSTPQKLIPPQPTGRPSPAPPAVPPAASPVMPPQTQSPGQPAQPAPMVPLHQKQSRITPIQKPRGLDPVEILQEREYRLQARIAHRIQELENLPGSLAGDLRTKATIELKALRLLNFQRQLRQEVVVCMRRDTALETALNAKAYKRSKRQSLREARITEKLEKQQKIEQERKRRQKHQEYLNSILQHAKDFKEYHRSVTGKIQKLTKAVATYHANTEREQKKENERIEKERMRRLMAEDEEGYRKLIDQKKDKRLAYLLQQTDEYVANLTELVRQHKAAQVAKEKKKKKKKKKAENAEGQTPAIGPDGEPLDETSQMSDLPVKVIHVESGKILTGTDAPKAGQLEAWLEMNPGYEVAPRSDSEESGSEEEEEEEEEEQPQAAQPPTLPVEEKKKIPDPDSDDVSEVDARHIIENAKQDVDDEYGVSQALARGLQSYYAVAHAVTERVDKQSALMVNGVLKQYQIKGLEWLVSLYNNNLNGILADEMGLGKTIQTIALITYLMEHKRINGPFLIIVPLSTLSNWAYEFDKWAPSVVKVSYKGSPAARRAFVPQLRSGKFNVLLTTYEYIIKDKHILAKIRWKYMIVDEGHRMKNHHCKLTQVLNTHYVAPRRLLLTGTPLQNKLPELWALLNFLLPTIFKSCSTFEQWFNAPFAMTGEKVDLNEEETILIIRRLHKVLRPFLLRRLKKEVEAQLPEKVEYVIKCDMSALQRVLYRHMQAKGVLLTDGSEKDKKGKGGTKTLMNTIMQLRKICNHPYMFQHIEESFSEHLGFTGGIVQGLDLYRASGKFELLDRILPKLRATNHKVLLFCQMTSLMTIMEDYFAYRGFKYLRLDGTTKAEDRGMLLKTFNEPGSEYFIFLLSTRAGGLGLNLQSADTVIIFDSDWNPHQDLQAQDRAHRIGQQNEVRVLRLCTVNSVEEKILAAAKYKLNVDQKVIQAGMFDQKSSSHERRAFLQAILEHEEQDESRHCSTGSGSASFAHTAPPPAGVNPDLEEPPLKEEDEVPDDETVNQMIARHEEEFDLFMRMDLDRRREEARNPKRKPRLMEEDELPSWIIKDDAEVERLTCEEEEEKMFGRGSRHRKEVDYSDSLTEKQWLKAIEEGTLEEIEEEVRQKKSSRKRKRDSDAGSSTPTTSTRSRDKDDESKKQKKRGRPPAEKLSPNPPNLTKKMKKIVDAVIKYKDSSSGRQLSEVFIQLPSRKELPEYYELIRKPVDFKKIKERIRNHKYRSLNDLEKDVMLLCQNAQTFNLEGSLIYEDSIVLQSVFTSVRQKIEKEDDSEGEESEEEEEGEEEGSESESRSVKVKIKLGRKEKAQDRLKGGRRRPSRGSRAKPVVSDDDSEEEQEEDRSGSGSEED

| Structure (SMILES) | IC50 (BRG-1) [nM] | Emax (BRG-1) [%] | BRM Max % Inhibition (BRM) [%] | IC50 (BRM) [µM] | BRG1 Max % Inhibition (BRG-1; ADP-Glo, 30 nM BRG-1, 400 μM ATP) [%] |
| --- | --- | --- | --- | --- | --- |
| C[C@@]1(C#N)COCc2ccc(C(=O)NCc3cc(N4CCC5CCCCC5C4)ccn3)cc21 (stereo partly shown) [Compound 57] | > 1000 | 37 | 85 | 0.1 to 0.5 | – |
| C[C@@]1(C#N)COCc2ccc(C(=O)NCc3cc(OCc4ccccn4)ccn3)cc21 [Compound 36] | > 1000 | 44 | 64 | > 1 | – |
| C[C@@]1(C#N)COCc2ccc(C(=O)NCc3cc([C@H]4C[C@@H](c5cccc(C6CC6)n5)C4)ccn3)cc21 [Compound 78] | 500 to 1000 | 79 | 96 | < 0.1 | – |
| COc1cc(C2CCC2)ccc1-c1ccc2cnc(CNC(=O)c3ccc4c(c3)[C@](C)(C#N)COC4)cc2n1 [Compound 127] | 500 to 1000 | 74 | 96 | < 0.1 | – |
| C[C@@]1(C#N)COCc2ccc(C(=O)NCc3cc(OCc4cc(F)c5c(c4)CCO5)ccn3)cc21 [Compound 45] | 500 to 1000 | 79 | 96 | < 0.1 | – |
| COc1ccc(C)cc1-c1ccc2cnc(CNC(=O)c3ccc4c(c3)[C@](C)(C#N)COC4)cc2n1 [Compound 153] | > 1000 | 37 | 87 | 0.1 to 0.5 | – |
| Cn1ncc2c1CN(c1ccc3cnc(CNC(=O)c4ccc5c(c4)[C@](C)(C#N)COC5)cc3n1)CC2 [Compound 457] | 500 to 1000 | 61 | 95 | 0.1 to 0.5 | – |
| Cc1nn(C2COC2)cc1-c1ccc2cnc(CNC(=O)c3ccc4c(c3)[C@](C)(C#N)COC4)cc2n1 [Compound 188] | > 1000 | 41 | 93 | 0.1 to 0.5 | – |
| C[C@@]1(C#N)COCc2ccc(C(=O)NCc3cc4nc(-n5cc(F)cn5)ccc4cn3)cc21 [Compound 411] | 500 to 1000 | 50 | 91 | 0.1 to 0.5 | – |
| C[C@@]1(F)COCc2ccc(C(=O)NCc3cc4nc(-c5ccccc5)sc4cn3)cc21 [Compound 300] | 500 to 1000 | 63 | 99 | 0.1 to 0.5 | – |
| COC(=O)N1CCC=C(c2ccc3cnc(CNC(=O)c4ccc5c(c4)[C@](C)(F)COC5)cc3n2)C1 [Compound 345] | > 1000 | 25 | 81 | 0.1 to 0.5 | – |
| C[C@@]1(C#N)COCc2ccc(C(=O)NCc3cc(OCC4CCOCC4)ccn3)cc21 [Compound 61] | > 1000 | 25 | 85 | 0.1 to 0.5 | – |
| CN(C)c1ncc(-c2ccc3cnc(CNC(=O)c4ccc5c(c4)[C@](C)(C#N)COC5)cc3n2)cn1 [Compound 472] | > 1000 | 51 | 86 | 0.1 to 0.5 | – |
| CN1CC(c2cccc(-c3ccc4cnc(CNC(=O)c5ccc6c(c5)[C@](C)(C#N)COC6)cc4n3)c2)C1 [Compound 421] | > 1000 | 37 | 84 | 0.1 to 0.5 | – |
| C[C@@]1(C#N)COCc2ccc(C(=O)NCc3cc(/C(F)=C/c4ccccc4)ccn3)cc21 [Compound 27] | > 1000 | 62 | 97 | 0.1 to 0.5 | – |
| CN1CCC(NC(=O)c2cccc(-c3ccc4cnc(CNC(=O)c5ccc6c(c5)[C@](C)(C#N)COC6)cc4n3)c2)CC1 [Compound 317] | > 1000 | 96 | 100 | 0.1 to 0.5 | – |
| C[C@@]1(C#N)COCc2ccc(C(=O)NCc3cc(OCc4cccc(N5CCC5)c4)ccn3)cc21 [Compound 40] | > 1000 | 67 | 96 | 0.1 to 0.5 | – |
| CN(C)c1cccc([C@H]2C[C@H](c3ccnc(CNC(=O)c4ccc5c(c4)[C@](C)(C#N)COC5)c3)C2)n1 [Compound 76] | > 1000 | 91 | 98 | 0.1 to 0.5 | – |
| C[C@@]1(C#N)COCc2ccc(C(=O)NCc3cc4nc(N5CCCN(C6CCC6)C5=O)ccc4cn3)cc21 [Compound 350] | > 1000 | 54 | 96 | 0.1 to 0.5 | – |
| Cn1cccc(-c2ccc3cnc(CNC(=O)c4ccc5c(c4)[C@](C)(C#N)COC5)cc3n2)c1=O [Compound 510] | > 1000 | 64 | 89 | 0.1 to 0.5 | – |
| CC(C)(O)c1cccc(-c2ccc3cnc(CNC(=O)c4ccc5c(c4)[C@](C)(C#N)COC5)cc3n2)n1 [Compound 410] | 500 to 1000 | 75 | 93 | 0.1 to 0.5 | – |
| C[C@@]1(C#N)COCc2ccc(C(=O)NCc3cc4nc(-c5ccccc5)ccc4cn3)cc21 [Compound 97] | > 1000 | – | 93 | 0.1 to 0.5 | 47 |
| Cc1cncc(-c2ccc3cnc(CNC(=O)c4ccc5c(c4)[C@](C)(C#N)COC5)cc3n2)n1 [Compound 408] | 500 to 1000 | 65 | 91 | 0.1 to 0.5 | – |
| C[C@@]1(C#N)COCc2ccc(C(=O)NCc3cc4nc(-n5cccc(C6CC6)c5=O)ccc4cn3)cc21 [Compound 282] | > 1000 | 45 | 87 | 0.1 to 0.5 | – |
| COc1nn(CC(F)F)cc1-c1ccc2cnc(CNC(=O)c3ccc4c(c3)[C@](C)(C#N)COC4)cc2n1 [Compound 202] | 500 to 1000 | 67 | 94 | < 0.1 | – |

Continued, values first:

| IC50 (BRG-1) [nM] | Emax (BRG-1) [%] | BRM Max % Inhibition (BRM) [%] | IC50 (BRM) [µM] | BRG1 Max % Inhibition (BRG-1; ADP-Glo, 30 nM BRG-1, 400 μM ATP) [%] | Structure (SMILES) |
| --- | --- | --- | --- | --- | --- |
| < 100 | 95 | 99 | < 0.1 | – | C[C@@]1(C#N)COCc2ccc(C(=O)NCc3cc4nc(-c5cncc(N6CCCC6)n5)ccc4cn3)cc21 [Compound 415] |
| 100 to 500 | 82 | 96 | 0.1 to 0.5 | – | Cn1ccc2nc(-c3ccc4cnc(CNC(=O)c5ccc6c(c5)[C@](C)(C#N)COC6)cc4n3)sc2c1=O [Compound 443] |
| 100 to 500 | 97 | 99 | < 0.1 | – | COc1cc(Cl)ccc1-c1ccc2cnc(CNC(=O)c3ccc4c(c3)[C@](C)(C#N)COC4)cc2n1 [Compound 156] |
| 100 to 500 | 88 | 97 | < 0.1 | – | COc1nn(C)cc1-c1ccc2cnc(CNC(=O)c3ccc4c(c3)[C@](C)(C#N)COC4)cc2n1 [Compound 454] |
| 100 to 500 | 88 | 100 | < 0.1 | – | C[C@@]1(F)COCc2ncc(C(=O)NCc3cc4nc(-c5ccnc(N6CCC6)c5F)ccc4cn3)cc21 [Compound 296] |
| 100 to 500 | 94 | 99 | < 0.1 | – | C[C@@]1(F)COCc2ccc(C(=O)NCc3cc4nc(-c5ccnc(N6CCN(C7COC7)CC6)n5)ccc4cn3)cc21 [Compound 292] |
| 100 to 500 | 87 | 99 | < 0.1 | – | COc1nn([C@H]2C[C@H](F)C2)cc1-c1ccc2cnc(CNC(=O)c3ccc4c(c3)[C@](C)(C#N)COC4)cc2n1 [Compound 185] |
| 100 to 500 | 96 | 99 | < 0.1 | – | Cn1ccc2c(-c3ccc4cnc(CNC(=O)c5ccc6c(c5)[C@](C)(C#N)COC6)cc4n3)cccc21 [Compound 179] |
| < 100 | 98 | 103 | < 0.1 | – | Cn1c(C2CC2)cc2c(-c3ccc4cnc(CNC(=O)c5ccc6c(c5)[C@](C)(C#N)COC6)cc4n3)cccc21 [Compound 135] |
| 100 to 500 | 89 | 98 | < 0.1 | – | COc1cncc(-c2ccc3cnc(CNC(=O)c4ccc5c(c4)[C@](C)(C#N)COC5)cc3n2)n1 [Compound 423] |
| 100 to 500 | 83 | 96 | < 0.1 | – | C[C@@]1(C#N)COCc2ccc(C(=O)NCc3cc4c(cn3)CCN(c3cncc(N5CCOCC5)n3)C4)cc21 [Compound 314] |
| 100 to 500 | 95 | 99 | < 0.1 | – | C[C@@]1(C#N)COCc2ccc(C(=O)NCc3cc4nc(-c5ccnc(N6CCOCC6)n5)ccc4cn3)cc21 [Compound 416] |
| 100 to 500 | 93 | 99 | < 0.1 | – | C[C@@]1(F)COCc2ccc(C(=O)NCc3cc4nc(-c5cccc(N6CCC6)n5)cnc4cn3)cc21 [Compound 214] |
| 100 to 500 | 87 | 99 | < 0.1 | – | C[C@@]1(C#N)COCc2ccc(C(=O)NCc3cc4nc(-c5ccnc(N6CCC6)c5)ccc4cn3)cc21 [Compound 437] |
| 100 to 500 | 93 | 98 | < 0.1 | – | C[C@@]1(C#N)COCc2ccc(C(=O)NCc3cc4nc(-n5cc(F)c(N6CCC6)n5)ccc4cn3)cc21 [Compound 425] |
| 100 to 500 | 96 | 103 | < 0.1 | – | C[C@@]1(F)COCc2ccc(C(=O)NCc3cc4cc(-c5cncc(N6CCC6)n5)ccc4cn3)cc21 [Compound 370] |
| 100 to 500 | 91 | 101 | < 0.1 | – | COc1ncccc1-c1ccc2cnc(CNC(=O)c3ccc4c(c3)[C@](C)(C#N)COC4)cc2n1 [Compound 488] |
| 100 to 500 | 90 | 97 | < 0.1 | – | C[C@@]1(F)COCc2ncc(C(=O)NCc3cc4nc(-c5ccnc(N6CCC6)c5F)cnc4cn3)cc21 [Compound 215] |
